Laboratory results: US6436874B1, “Synergistic herbicidal agents based on leaf herbicides containing phosphorus, imidazolinones and hormone weed killers” (priority 1998, dated 2002)
Structures can show the parent of a compound that is named as a salt. Where two headings read alike, the source gives them in different places.

Assays:
Type in all cases: in vivo
Axonopus compressus = assay: Field trial, herbicidal activity against Axonopus compressus in rubber tree plantation; conditions: Axonopus compressus, read-out: Activity (%), w. after appl., No. 2, dose 60 g of AS/ha
Description: (§1) In an oil palm plantation, the economically important tropical weed Hedyotis verticillata was grown on plots of the dimensions 2×5 m under natural outdoor conditions and treated with the herbicides A1.2, B1 and C1 or their mixtures in a tank mix under standard conditions using a plot sprayer, at a water application rate of 450 liters of water per hectare (over-the-top application to the weeds; plant density initially more than 95% ground coverage). At intervals of 1, 2, 3, 4, 5, 6, 7 and 8 weeks after the application, the herbicidal efficacy of the active compounds or active compound mixtures was evaluated visually on the basis of the treated plots, in comparison with untreated control plots. The damage to and development of all above-ground parts of the plants were recorded. Evaluation was carried out using a percentage scale (100% effect=all plants killed; 50% effect=50% of the plants and the green parts of the plants killed; 0% effect=no noticeable effect=like control plot). The evaluation values of in each case 4 plots were averaged.
In a rubber tree plantation, plots with the tropical weed Axonopus compressus were grown under natural outdoor conditions (plot dimensions 2×5 m). The herbicides or their mixtures in a tank mix were applied under standard conditions using a plot spayer at a water application rate of 450 liters of water per hectare (over-the-top application). At intervals of 4, 7, 13, 17 and 21 weeks after the application, the herbicidal efficacy of the active compounds or active compound mixtures was evaluated visually on the basis of the treated plots, in comparison with untreated control plots. The damage to and development of all above-ground parts of the plants were recorded. Evaluation was carried out as described in Example 1.

Asystasia intrusa = assay: Field trial, herbicidal activity against Asystasia intrusa in rubber tree plantation; conditions: Asystasia intrusa, read-out: Activity (%), w. after appl., No. 2, dose 60 g of AS/ha
Description: as §1
In a rubber tree plantation, plots with the tropical weed Asystasia intrusa were grown under natural outdoor conditions (dimensions of the plots 2 x 5 m). The herbicides or their mixtures in a tank mix were applied under standard conditions (over-the-top application using a plot sprayer, water application rate 450 l/ha). In intervals of 4, 7, 13, 17 and 21 weeks after the application, the herbicidal efficacy of the active compounds or their mixtures was evaluated visually on the basis of the treated plots, in comparison with untreated control plots. The damage to and the development of all above-ground parts of the plants were recorded. Evaluation was carried out as described in Example 1.

[1] = test system: Brachiaria mutica, Digitaria horizontalis, Panicum maximum, Echinochloa colona and Ageratum conyzoides; assay: Field trial, herbicidal activity against weeds in sugar cane plantation
Description: as §1, with “Evaluation was carried out using a percentage scale (100% effect=all plants killed; 50% effect=50% of the plants and the green parts of the plants killed; 0% effect=no noticeable effect=like control plot). The evaluation values of in each case 4 plots were averaged.” left out
In a sugar cane plantation, plots with the weeds Brachiaria mutica, Digitaria horizontalis, Panicum maximum, Echinochloa colona and Ageratum conyzoides were grown under natural outdoor conditions (dimensions of the plots 2×5 m). […] Four weeks after the application, the herbicidal efficacy of the active compounds or their mixtures was evaluated visually on the basis of the treated plots, in comparison with untreated control plots. The damage to and development of all above-ground parts of the plants were recorded. […]

Hedyotis verticillata = assay: Field trial, herbicidal activity against Hedyotis verticillata in oil palm plantation; conditions: Scleromitrion verticillatum; for inhibition at 25 g/ha: read-out: Herbicidal activity (%), w. after appl., No. 11, dose 25 g of AS/ha; for inhibition at 50 g/ha: read-out: Herbicidal activity (%), w. after appl., No. 12, dose 50 g of AS/ha; for inhibition at 80 g/ha: read-out: Herbicidal activity (%), w. after appl., No. 13, dose 80 g of AS/ha
Description: as §1

In the case of `CP(=O)(O)CCC(N)C(=O)O` (stereo not drawn) [A1.2, Glufosinate-monoammonium salt], the inhibition at 60 g/ha (Axonopus compressus; 4 w. after appl.) is reported as 17%, the inhibition at 60 g/ha (Axonopus compressus; 7 w. after appl.) is reported as 10% and the inhibition at 60 g/ha (Axonopus compressus; 13 w. after appl.) is reported as 0%. For the same molecule, the inhibition at 60 g/ha (Axonopus compressus; 17 w. after appl.) was 0%, the inhibition at 60 g/ha (Axonopus compressus; 21 w. after appl.) was 0% and the inhibition at 60 g/ha (Asystasia intrusa; 4 w. after appl.) was 23%. The inhibition at 60 g/ha (Asystasia intrusa; 7 w. after appl.) was 5%, the inhibition at 60 g/ha (Asystasia intrusa; 13 w. after appl.) was 0% and the inhibition at 60 g/ha (Asystasia intrusa; 17 w. after appl.) was 0%. The inhibition at 60 g/ha (Asystasia intrusa; 21 w. after appl.) was 0%, the inhibition at 300 g/ha ([1]; 672 h, read-out: Herbicidal activity (%)) was 72% and the “Weed coverage (%)” value ([1]; No. 2, dose 300 g of AS/ha, percent ground coverage, control plot has more than 95% weed coverage) was 27%. It also gave an inhibition at 25 g/ha (Hedyotis verticillata; 1 w. after appl.) of 35%, an inhibition at 25 g/ha (Hedyotis verticillata; 2 w. after appl.) of 28% and an inhibition at 25 g/ha (Hedyotis verticillata; 3 w. after appl.) of 23%. It also gave an inhibition at 25 g/ha (Hedyotis verticillata; 4 w. after appl.) of 20%, an inhibition at 25 g/ha (Hedyotis verticillata; 5 w. after appl.) of 10% and an inhibition at 25 g/ha (Hedyotis verticillata; 6 w. after appl.) of 10%. The inhibition at 25 g/ha (Hedyotis verticillata; 7 w. after appl.) was 10%, the inhibition at 25 g/ha (Hedyotis verticillata; 8 w. after appl.) was 0% and the inhibition at 50 g/ha (Hedyotis verticillata; 1 w. after appl.) was 35%. For the same molecule, the inhibition at 50 g/ha (Hedyotis verticillata; 2 w. after appl.) was 25%, the inhibition at 50 g/ha (Hedyotis verticillata; 3 w. after appl.) was 20% and the inhibition at 50 g/ha (Hedyotis verticillata; 4 w. after appl.) was 20%. The inhibition at 50 g/ha (Hedyotis verticillata; 5 w. after appl.) was 10%, the inhibition at 50 g/ha (Hedyotis verticillata; 6 w. after appl.) was 10% and the inhibition at 50 g/ha (Hedyotis verticillata; 7 w. after appl.) was 10%. The inhibition at 50 g/ha (Hedyotis verticillata; 8 w. after appl.) was 0%, the inhibition at 80 g/ha (Hedyotis verticillata; 1 w. after appl.) was 58% and the inhibition at 80 g/ha (Hedyotis verticillata; 2 w. after appl.) was 45%. For the same molecule, the inhibition at 80 g/ha (Hedyotis verticillata; 3 w. after appl.) was 40%, the inhibition at 80 g/ha (Hedyotis verticillata; 4 w. after appl.) was 40% and the inhibition at 80 g/ha (Hedyotis verticillata; 5 w. after appl.) was 40%. It also gave an inhibition at 80 g/ha (Hedyotis verticillata; 6 w. after appl.) of 30%, an inhibition at 80 g/ha (Hedyotis verticillata; 7 w. after appl.) of 28% and an inhibition at 80 g/ha (Hedyotis verticillata; 8 w. after appl.) of 8%.
